Patent US9492471B2, “Methods of treating a disease or disorder associated with Bruton'S Tyrosine Kinase” (Celgene Avilomics Research, Inc., priority 2013, dated 2016)
Read-outs that look alike come from different tables or passages of the source.

Tests used:
Assay in all cases: HotSpot kinase profiling
Format in all cases: biochemical
MST1/STK4 = molecular target: T1, MST1/STK4 (Homo sapiens, UniProt Q13043)
T1 construct: purchased Reaction Biology Corp
T1 sequence (Q13043 1-487): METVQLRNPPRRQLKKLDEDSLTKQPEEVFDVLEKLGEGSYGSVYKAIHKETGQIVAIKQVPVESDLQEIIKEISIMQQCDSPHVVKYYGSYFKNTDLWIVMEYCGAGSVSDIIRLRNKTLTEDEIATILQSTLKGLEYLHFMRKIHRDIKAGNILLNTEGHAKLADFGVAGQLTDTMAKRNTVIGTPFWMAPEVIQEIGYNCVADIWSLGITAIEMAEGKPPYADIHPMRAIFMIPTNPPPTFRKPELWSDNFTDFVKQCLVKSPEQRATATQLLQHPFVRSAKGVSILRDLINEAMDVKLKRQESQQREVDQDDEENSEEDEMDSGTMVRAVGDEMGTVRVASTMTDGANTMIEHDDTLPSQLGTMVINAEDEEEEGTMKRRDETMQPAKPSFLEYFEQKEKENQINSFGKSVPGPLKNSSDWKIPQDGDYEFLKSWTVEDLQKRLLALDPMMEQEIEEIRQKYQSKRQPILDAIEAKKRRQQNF
Method in brief: (§1)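 Activity is measured by radiolabel transfer captured on P81 filters after a 2 h room-temperature reaction of kinase, substrate and cofactors. Values are percent inhibition against DMSO.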

JNK2 = molecular target: T2, JNK2 (Homo sapiens, UniProt P45984)
T2 construct: purchased Reaction Biology Corp
Method in brief: as §1

MSSK1/STK23 = molecular target: T3, MSSK1/STK23 (Homo sapiens, UniProt Q9UPE1)
T3 construct: purchased Reaction Biology Corp
Method in brief: as §1

CK1d = molecular target: T4, CK1d (Homo sapiens, UniProt P48730)
T4 construct: purchased Reaction Biology Corp
Method in brief: as §1

TTBK2 = molecular target: T5, TTBK2 (Homo sapiens, UniProt Q6IQ55)
T5 construct: purchased Reaction Biology Corp
Method in brief: as §1

AKT3 = molecular target: T6, AKT3 (Homo sapiens, UniProt Q9Y243)
T6 construct: purchased Reaction Biology Corp
Method in brief: as §1

SRMS = molecular target: T7, SRMS (Homo sapiens, UniProt Q9H3Y6)
T7 construct: purchased Reaction Biology Corp
Method in brief: as §1

CK1g2 = molecular target: T8, CK1g2 (Homo sapiens, UniProt P78368)
T8 construct: purchased Reaction Biology Corp
Method in brief: as §1

HIPK1 = molecular target: T9, HIPK1 (Homo sapiens, UniProt Q86Z02)
T9 construct: purchased Reaction Biology Corp
Method in brief: as §1

SYK = molecular target: T10, SYK (Homo sapiens, UniProt P43405)
T10 construct: purchased Reaction Biology Corp

EPHB4 = molecular target: T11, EPHB4 (Homo sapiens, UniProt P54760)
T11 construct: purchased Reaction Biology Corp
T11 sequence (P54760 16-987): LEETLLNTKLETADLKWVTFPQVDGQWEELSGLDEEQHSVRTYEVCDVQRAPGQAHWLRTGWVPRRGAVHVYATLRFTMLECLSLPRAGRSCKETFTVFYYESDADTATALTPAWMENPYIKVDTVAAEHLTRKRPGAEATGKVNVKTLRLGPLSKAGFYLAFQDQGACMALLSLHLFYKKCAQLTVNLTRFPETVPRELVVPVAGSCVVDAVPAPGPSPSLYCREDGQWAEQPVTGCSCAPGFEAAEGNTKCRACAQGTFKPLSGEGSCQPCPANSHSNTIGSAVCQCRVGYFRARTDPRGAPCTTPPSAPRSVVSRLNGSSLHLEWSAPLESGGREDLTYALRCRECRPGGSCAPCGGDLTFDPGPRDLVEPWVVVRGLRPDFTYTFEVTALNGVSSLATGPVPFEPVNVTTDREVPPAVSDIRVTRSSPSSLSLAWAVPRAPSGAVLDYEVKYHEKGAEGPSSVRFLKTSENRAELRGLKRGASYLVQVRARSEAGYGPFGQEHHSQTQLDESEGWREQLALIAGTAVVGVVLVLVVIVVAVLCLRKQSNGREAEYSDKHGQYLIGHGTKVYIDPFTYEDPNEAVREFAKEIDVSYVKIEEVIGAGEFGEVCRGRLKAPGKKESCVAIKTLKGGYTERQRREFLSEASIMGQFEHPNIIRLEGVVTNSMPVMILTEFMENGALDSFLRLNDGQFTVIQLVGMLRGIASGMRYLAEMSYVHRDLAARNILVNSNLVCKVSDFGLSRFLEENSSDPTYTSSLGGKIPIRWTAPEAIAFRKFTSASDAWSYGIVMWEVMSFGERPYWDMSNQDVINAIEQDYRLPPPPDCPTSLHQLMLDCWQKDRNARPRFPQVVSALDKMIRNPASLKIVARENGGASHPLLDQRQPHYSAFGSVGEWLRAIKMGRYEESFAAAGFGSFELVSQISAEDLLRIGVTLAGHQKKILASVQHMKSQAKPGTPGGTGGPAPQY
Method in brief: as §1

[1] = read-out: % Enzyme Activity (relative to DMSO controls) Run 1
[2] = read-out: % Enzyme Activity (relative to DMSO controls) Run 2

T5 sequence (Q6IQ55 whole entry): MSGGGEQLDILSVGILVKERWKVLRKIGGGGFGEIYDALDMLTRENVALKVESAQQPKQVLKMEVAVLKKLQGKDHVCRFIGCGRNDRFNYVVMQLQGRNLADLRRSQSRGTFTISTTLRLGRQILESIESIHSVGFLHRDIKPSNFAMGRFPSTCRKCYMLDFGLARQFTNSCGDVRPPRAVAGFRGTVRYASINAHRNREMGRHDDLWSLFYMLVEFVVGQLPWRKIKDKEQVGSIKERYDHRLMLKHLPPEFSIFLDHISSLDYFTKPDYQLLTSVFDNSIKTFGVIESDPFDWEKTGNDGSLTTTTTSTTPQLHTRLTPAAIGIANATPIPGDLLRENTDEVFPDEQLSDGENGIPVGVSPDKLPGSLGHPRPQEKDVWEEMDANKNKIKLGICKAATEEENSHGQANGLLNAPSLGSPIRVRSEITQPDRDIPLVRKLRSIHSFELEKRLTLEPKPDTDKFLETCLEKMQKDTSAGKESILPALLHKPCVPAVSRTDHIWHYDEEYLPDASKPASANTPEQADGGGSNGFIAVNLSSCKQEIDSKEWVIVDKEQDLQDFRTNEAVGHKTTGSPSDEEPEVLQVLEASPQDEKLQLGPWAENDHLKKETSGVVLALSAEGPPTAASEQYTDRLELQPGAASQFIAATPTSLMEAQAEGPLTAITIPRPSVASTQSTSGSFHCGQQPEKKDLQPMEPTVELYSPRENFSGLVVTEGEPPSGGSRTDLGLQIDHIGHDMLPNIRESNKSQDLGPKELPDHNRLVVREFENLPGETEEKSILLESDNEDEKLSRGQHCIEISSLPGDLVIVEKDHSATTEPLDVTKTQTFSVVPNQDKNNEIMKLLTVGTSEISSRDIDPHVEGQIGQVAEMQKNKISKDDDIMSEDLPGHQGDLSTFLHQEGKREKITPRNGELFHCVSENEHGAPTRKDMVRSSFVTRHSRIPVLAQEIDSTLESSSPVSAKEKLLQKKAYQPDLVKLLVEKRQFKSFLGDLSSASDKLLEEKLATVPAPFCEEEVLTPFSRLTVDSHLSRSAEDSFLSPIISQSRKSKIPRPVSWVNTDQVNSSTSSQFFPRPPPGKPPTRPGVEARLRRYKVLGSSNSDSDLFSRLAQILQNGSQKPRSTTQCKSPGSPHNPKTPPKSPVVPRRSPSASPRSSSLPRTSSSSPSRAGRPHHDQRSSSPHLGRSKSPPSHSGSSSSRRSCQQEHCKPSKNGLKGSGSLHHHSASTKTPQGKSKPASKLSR
T6 sequence (Q9Y243 whole entry): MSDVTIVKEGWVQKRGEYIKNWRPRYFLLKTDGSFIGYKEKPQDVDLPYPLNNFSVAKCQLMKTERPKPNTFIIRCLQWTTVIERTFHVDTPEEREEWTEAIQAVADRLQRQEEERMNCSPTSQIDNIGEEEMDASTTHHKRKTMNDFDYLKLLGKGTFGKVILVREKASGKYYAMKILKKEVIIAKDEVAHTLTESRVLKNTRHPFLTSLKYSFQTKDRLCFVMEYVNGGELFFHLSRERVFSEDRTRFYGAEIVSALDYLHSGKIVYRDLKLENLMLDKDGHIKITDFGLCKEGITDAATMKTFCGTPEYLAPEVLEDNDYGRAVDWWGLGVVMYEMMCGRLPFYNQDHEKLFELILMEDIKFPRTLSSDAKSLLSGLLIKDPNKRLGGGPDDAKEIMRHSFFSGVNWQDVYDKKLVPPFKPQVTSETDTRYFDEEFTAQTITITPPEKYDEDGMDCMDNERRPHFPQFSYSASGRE
T3 sequence (Q9UPE1 whole entry): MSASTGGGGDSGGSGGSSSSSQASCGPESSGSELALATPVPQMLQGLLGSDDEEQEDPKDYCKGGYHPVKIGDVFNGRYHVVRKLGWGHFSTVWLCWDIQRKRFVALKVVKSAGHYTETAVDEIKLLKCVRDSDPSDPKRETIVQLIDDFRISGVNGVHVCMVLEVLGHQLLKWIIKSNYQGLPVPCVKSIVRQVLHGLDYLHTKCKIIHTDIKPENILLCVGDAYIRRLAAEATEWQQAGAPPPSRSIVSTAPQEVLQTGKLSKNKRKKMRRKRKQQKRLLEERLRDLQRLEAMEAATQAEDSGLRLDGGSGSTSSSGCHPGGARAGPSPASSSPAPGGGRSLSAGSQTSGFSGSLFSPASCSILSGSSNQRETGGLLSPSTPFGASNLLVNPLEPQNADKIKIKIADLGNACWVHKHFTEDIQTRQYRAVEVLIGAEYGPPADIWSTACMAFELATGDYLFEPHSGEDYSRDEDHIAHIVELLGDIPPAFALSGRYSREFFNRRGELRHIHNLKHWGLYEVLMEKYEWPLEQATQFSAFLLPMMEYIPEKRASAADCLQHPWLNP
T8 sequence (P78368 whole entry): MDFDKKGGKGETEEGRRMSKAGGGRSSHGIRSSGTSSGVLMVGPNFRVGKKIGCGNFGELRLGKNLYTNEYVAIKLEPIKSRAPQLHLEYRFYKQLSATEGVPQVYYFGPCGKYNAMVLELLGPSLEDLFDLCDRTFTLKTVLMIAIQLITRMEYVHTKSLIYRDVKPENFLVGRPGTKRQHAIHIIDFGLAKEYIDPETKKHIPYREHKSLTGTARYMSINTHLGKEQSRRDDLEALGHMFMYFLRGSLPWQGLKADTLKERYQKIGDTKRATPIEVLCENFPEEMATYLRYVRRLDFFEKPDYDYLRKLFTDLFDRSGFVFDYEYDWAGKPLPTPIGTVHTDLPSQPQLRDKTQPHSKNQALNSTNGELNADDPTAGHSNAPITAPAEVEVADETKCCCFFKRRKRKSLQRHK
T7 sequence (Q9H3Y6 whole entry): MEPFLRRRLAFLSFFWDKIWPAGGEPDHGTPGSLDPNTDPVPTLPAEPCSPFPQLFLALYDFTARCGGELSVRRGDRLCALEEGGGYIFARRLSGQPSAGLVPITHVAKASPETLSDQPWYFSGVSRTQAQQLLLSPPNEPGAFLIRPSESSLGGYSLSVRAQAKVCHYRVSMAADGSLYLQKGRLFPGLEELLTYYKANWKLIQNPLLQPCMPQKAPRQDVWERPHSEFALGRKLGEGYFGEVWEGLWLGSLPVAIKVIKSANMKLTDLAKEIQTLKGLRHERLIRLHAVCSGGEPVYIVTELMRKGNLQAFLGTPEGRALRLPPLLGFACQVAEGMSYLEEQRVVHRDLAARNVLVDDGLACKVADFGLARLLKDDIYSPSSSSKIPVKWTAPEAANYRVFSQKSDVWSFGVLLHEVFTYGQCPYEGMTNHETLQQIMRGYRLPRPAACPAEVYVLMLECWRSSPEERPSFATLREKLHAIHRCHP
T2 sequence (P45984 whole entry): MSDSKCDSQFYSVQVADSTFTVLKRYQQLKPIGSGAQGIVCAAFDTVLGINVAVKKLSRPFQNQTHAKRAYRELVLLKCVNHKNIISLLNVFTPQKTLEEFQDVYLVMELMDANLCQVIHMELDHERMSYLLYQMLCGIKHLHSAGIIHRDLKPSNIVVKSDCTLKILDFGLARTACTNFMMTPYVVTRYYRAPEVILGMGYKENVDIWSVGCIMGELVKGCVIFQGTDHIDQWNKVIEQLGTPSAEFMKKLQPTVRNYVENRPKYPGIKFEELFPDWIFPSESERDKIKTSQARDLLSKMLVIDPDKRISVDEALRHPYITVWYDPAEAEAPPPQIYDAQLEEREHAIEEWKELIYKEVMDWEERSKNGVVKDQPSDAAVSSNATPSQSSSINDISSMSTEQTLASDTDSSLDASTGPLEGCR
T9 sequence (Q86Z02 whole entry): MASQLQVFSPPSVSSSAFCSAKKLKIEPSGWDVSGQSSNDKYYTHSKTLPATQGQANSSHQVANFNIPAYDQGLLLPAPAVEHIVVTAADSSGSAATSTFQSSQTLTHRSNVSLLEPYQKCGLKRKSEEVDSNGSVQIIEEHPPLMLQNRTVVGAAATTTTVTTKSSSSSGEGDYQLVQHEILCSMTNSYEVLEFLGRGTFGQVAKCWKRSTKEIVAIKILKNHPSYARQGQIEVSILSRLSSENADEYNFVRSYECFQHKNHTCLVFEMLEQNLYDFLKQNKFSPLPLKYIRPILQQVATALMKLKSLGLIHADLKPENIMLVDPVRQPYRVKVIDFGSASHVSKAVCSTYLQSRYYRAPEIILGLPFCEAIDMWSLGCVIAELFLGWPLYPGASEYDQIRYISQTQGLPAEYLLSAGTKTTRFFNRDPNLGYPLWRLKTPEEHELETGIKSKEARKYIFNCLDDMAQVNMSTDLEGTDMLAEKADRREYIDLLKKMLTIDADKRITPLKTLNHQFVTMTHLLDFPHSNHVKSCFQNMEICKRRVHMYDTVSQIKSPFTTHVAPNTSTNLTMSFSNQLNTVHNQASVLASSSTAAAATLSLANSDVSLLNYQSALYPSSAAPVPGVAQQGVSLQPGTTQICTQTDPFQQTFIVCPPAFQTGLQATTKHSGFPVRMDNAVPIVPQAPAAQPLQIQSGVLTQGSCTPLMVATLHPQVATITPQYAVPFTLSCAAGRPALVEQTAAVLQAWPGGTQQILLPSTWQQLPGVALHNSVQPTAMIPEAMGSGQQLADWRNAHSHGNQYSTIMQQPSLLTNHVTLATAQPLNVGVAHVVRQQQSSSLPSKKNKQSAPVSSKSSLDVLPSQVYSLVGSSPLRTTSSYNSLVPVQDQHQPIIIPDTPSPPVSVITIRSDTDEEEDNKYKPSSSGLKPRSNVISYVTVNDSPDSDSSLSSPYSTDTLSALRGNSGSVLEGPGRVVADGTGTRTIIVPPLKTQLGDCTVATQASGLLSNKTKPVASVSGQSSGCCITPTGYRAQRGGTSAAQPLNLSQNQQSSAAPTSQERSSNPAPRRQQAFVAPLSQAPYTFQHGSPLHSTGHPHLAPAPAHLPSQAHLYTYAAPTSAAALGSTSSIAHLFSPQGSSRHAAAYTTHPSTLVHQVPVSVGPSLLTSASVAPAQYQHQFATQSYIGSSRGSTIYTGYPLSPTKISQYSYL

With `C=CC(=O)Nc1cccc(Nc2nc(Nc3ccc(OCCOC)c(F)c3)ncc2F)c1` [Compound 2] the inhibition at 3 µM (MST1/STK4) was 30.6%, the remaining activity at 3 µM (MST1/STK4; [1]) was 70.2% and the remaining activity at 3 µM (MST1/STK4; [2]) was 68.7%. For the same molecule, the inhibition at 3 µM (JNK2) was 6.22%, the remaining activity at 3 µM (JNK2; [1]) was 92.5% and the remaining activity at 3 µM (JNK2; [2]) was 95.1%. For the same molecule, the inhibition at 3 µM (MSSK1/STK23) was -6.62%, the remaining activity at 3 µM (MSSK1/STK23; [1]) was 108% and the remaining activity at 3 µM (MSSK1/STK23; [2]) was 105%. The inhibition at 3 µM (CK1d) was -0.03%, the remaining activity at 3 µM (CK1d; [1]) was 99.9% and the remaining activity at 3 µM (CK1d; [2]) was 100%. For the same molecule, the inhibition at 3 µM (TTBK2) was -0.86%, the remaining activity at 3 µM (TTBK2; [1]) was 102% and the remaining activity at 3 µM (TTBK2; [2]) was 99.7%. It also gave an inhibition at 3 µM (AKT3) of -6.85%, a remaining activity at 3 µM (AKT3; [1]) of 111% and a remaining activity at 3 µM (AKT3; [2]) of 103%. For the same molecule, the inhibition at 3 µM (SRMS) was -23.1%, the remaining activity at 3 µM (SRMS; [1]) was 124% and the remaining activity at 3 µM (SRMS; [2]) was 123%. For the same molecule, the inhibition at 3 µM (CK1g2) was 12.6%, the remaining activity at 3 µM (CK1g2; [1]) was 89.1% and the remaining activity at 3 µM (CK1g2; [2]) was 85.7%. The inhibition at 3 µM (HIPK1) was 10.3%, the remaining activity at 3 µM (HIPK1; [1]) was 87.6% and the remaining activity at 3 µM (HIPK1; [2]) was 91.7%. The inhibition at 3 µM (SYK) was 22.4%, the remaining activity at 3 µM (SYK; [1]) was 78% and the remaining activity at 3 µM (SYK; [2]) was 77.1%. The inhibition at 3 µM (EPHB4) was 18.6%, the remaining activity at 3 µM (EPHB4; [1]) was 81.2% and the remaining activity at 3 µM (EPHB4; [2]) was 81.5%.
